Data reported in patent US20090012152A1, “Use of Tetramic Acid Derivatives for Controlling Insects from the Genus of the Plane Lice (Sternorrhyncha)” (Bayer CropScience Aktiengesellschaft, priority 2005, published 2009).

Columns and labels:
Assay type in all cases: in vivo
Aonidiella aurantii = test: Example 15: orange trees treated against Aonidiella aurantii; details: on fruits, % a.i.: Tokuthion 0.048 (once), I-9 0.0096, I-2 0.0096 (two applications)
Description: In three replications, 3-year-old orange trees of the cultivar “Midnight Valenzia” are treated against Aonidiella aurantii. Two applications are carried out at an interval of 72 days, using a motor-operated knapsack sprayer. Here, the active compounds Example (I-9) (240 SC) and Example (I-2) (240 SC) in a tank mix with 0.1% a.i. of rapeseed oil methyl ester (500 EW) at the stated application rate are tested against the standard Tokuthion (960 EC) at the stated amounts. applied once. The application rate is 4 l of water per tree.
Evaluation is carried out 130 and 176 days after the treatment by rating the kill on the fruits.

Pemphigus bursarius = test: Example 2: chrysanthemums, lettuce root aphid, foliar spray; details: on roots, spray on above-ground parts, rate : I-9 144, I-2 96
Description: In three replications, in each case 10 109-day-old chrysanthemums of the cultivar “Camilla” in 2 l-vessels are treated against the lettuce root aphid Pemphigus bursarius. Here, the active compounds Example (I-9) (240 SC) and Example (I-2) (240 SC) are applied with a knapsack sprayer operated by pressurized air at the stated application rates only to the above-ground parts of the plants. The soil is covered with a film. The application rate is 300 l of water/ha. 0.1% a.i. of rapeseed oil methyl ester (500 EW) is added to the spray liquor.
The kill in percent is determined on the roots. 21 and 29 days after the application, the following results are obtained: […]

Myzus persicae [1] = test: Example 46: head lettuce treated against Myzus persicae; details: nymphs on plants, g a.i./ha: endosulfan 1120, I-4 48
Description: In four replications, plots of a size of about 33 m^2 with head lettuce of the cultivar “PIC 714” are treated against Aulacorthum solani, Macrosiphum euphorbiae and Myzus persicae. The application is carried out using a tractor sprayer. Here, the active compound Example (I-4) (240 SC), in a tank mix with 0.2% a.i. of rapeseed oil methyl ester (500 EW), is tested against the commercial standard endosulfan (360 EC), at the stated application rates. The application rate is 187 l of water/ha. Two treatments are carried out, at an interval of 22 days.
Evaluation is carried out 8, 22, 30 and 40 days after the first treatment by rating the kill of the nymphs on the plants.

Myzus persicae [2] = test: Example 48: aubergine plants treated against Myzus persicae; details: on leaves, rate (g of a.i./ha): pymethrozine 0.0125, I-4 0.024
Description: In three replications, four aubergine plants (age about 7 months) of the cultivar “Hayabusa” are treated against Myzus persicae. The application is carried out using a motor-operated knapsack sprayer. Here, the active compound Example (I-4) (240 SC), in a tank mix with 0.1% a.i. of rapeseed oil methyl ester (500 EW), and the commercial standard pymethrozine (25 WP) are tested at the stated application rates. The application rate is 3000 l of water/ha.
Evaluation is carried out 7, 14, 21 and 29 days after the treatment by rating the kill of the animals on the leaves.

[3] = system: Quadraspidiotus perniciosus; test: Example 21: almond tree treated against Quadraspidiotus perniciosus; details: on branches, per metre crown height: Dursban 2240 g/ha, I-4 110 g/ha
Description: In four replications, an about 20-year-old almond tree of the cultivar “Non-Pareil” is treated against Quadraspidiotus perniciosus. The application is carried out using a high-pressure sprayer. Here, the active compound Example (I-4) (240 SC) in a tank mix with 0.125% a.i. of methylated seed oil (1000 EC) and the commercial standard Lorsban (480 EC) are tested at the stated application rates. The amount of spray liquor is 935 l/ha.
Evaluation is carried out 21, 42 and 63 days after the treatment by rating the kill of the animals on the branches.

Lepidosaphes beckii = test: Example 18: citrus trees treated against Lepidosaphes beckii; details: 140 days after treatment, larvae on fruits, g a.i./ha/m crown height: pyriproxyfen 50, I-4 48
Description: In three replications, in plots of a size of about 20 m^2, citrus trees of the cultivar “Oro Nules” are treated against Lepidosaphes beckii. The application is carried out using a high-pressure sprayer. Here, the active compound Example (I-4) (240 SC) in a tank mix with 0.1% a.i. of rapeseed oil methyl ester (500 EW) is tested against the commercial standard pyriproxyfen (100 EC), at the stated application rates. The application rate is 2500 l of water/ha.
Evaluation is carried out 140 days after the treatment by rating the kill of the larvae on the fruits.

Saissetia oleae = test: Example 14: orange trees (Navelina) treated against Saissetia oleae; details: 120 d after treatment, kill on branches, % a.i.: Dursban 0.096, I-4 0.012, I-9 0.0054, pyriproxyfen 0.005
Description: In three replications, orange trees of the cultivar “Navelina” are treated against Saissetia oleae. Here, the active compounds Example (I-4) (240 SC) and Example (I-9) (240 SC) in a tank mix with 0.1% of rapeseed oil methyl ester (500 EW) at the stated application rate are tested against the commercial standards Dursban (480 EC) and pyriproxyfen (100 EC) at the stated application rate. The application is carried out using a motor-operated knapsack sprayer. The application rate is 3200 l of water/ha.
Evaluation is carried out 120 days after the treatment by rating the kill of the animals on the branches.

Paratrioza cockerelli = test: Example 9: tomatoes treated against Paratrioza cockerelli; details: nymphs on leaves, g a.i./ha: Levarage 81, I-4 48
Description: In three replications, plots of a size of 10 m^2 with tomatoes are treated against Paratrioza cockerelli. Application is carried out using a knapsack sprayer operated with pressurized air. Here, the active compound Example (I-4) (240 SC) in a tank mix with 0.2% a.i. of rapeseed oil methyl ester (500 EW) and the commercial standard Leverage (324 SE) are tested at the stated application rates. There are two applications at an interval of 7 days. The application rate is 345 l of water/ha.
Evaluation is carried out 7, 14 and 21 days after the first treatment by rating the kill of the animals (nymphs) on the leaves.

| Compound | Kill (%) 130 d (Aonidiella aurantii; 130 d after treatment) [%] | Kill (%) 176 d (Aonidiella aurantii; 176 d after treatment) [%] | Kill (%) 21 d (Pemphigus bursarius; 21 d after application) [%] | Kill (%) 29 d (Pemphigus bursarius; 29 d after application) [%] | Kill (%) 8 d (Myzus persicae [1]; 8 d after first of two treatments) [%] | Kill (%) 22 d (Myzus persicae [1]; 22 d after first of two treatments) [%] | Kill (%) 30 d (Myzus persicae [1]; 30 d after first of two treatments) [%] | Kill (%) 7 d (Myzus persicae [2]; 7 d after treatment) [%] | Kill (%) 14 d (Myzus persicae [2]; 14 d after treatment) [%] | Kill (%) 21 d (Myzus persicae [2]; 21 d after treatment) [%] | Kill (%) 29 d (Myzus persicae [2]; 29 d after treatment) [%] | Kill (%) 21 d ([3]; 21 d after treatment) [%] | Kill (%) 42 d ([3]; 42 d after treatment) [%] | Kill (%) 63 d ([3]; 63 d after treatment) [%] | Kill (%) 140 days (Lepidosaphes beckii) [%] | Effect (%) 120 d (Saissetia oleae) [%] | Kill (%) 7 d (Paratrioza cockerelli; 7 d after first of two treatments) [%] | Kill (%) 14 d (Paratrioza cockerelli; 14 d after first of two treatments) [%] | Kill (%) 21 d (Paratrioza cockerelli; 21 d after first of two treatments) [%] |
| --- | --- | --- | --- | --- | --- | --- | --- | --- | --- | --- | --- | --- | --- | --- | --- | --- | --- | --- | --- |
| CCOC(=O)OC1=C(c2cc(C)ccc2Br)C(=O)NC12CCC(OC)CC2 (stereo not shown) [Example (I-2)] | 52 | 76 | 80.8 | 91.8 | – | – | – | – | – | – | – | – | – | – | – | – | – | – | – |
| CCOC(=O)OC1=C(c2cc(C)ccc2C)C(=O)NC12CCC(OC)CC2 (stereo not shown) [Example (I-4)] | – | – | – | – | 95 | 100 | 88 | 99.7 | 99.7 | 98 | 97 | 84.9 | 90 | 94.6 | 100 | 98 | 71.3 | 90.3 | 95.5 |
